Test systems include NCI-H226 lung; UACC-62 melanoma; SNB-19 CNS; CCRF-CEM leukemia; HOP-92 NSCLC; A549 NSCLC; SK-MEL-28 melanoma; HT29 colon; IGROV1 ovarian; MDA-N; CAKI-1 renal; HCT-116 colon.
What all share (test): NCI-60 cell line screen, 48 h

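1) Cells in 96-well plates. 2) Compound, 48 h, 5 concentrations. 3) Linear interpolation between surrounding doses. 4) Unreached endpoint = highest concentration. TGI is the concentration that stops growth completely.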

For the compound `CC(=O)OCC1C(C(C)OC(C)=O)CCC2C1CCC1(C)C(OC(C)=O)CCC21` (configuration not stated), the TGI worked out at 33.6 µM in the test with NCI-H226 lung; 26.3 µM in the test with UACC-62 melanoma; 42.5 µM with SNB-19 CNS; 42.6 µM in the test with CCRF-CEM leukemia; 37.4 µM in the test with HOP-92 NSCLC; 39.4 µM in the test on A549 NSCLC. In addition, the TGI is 29.1 µM in the test with SK-MEL-28 melanoma; 32.8 µM in the test on HT29 colon; 42.1 µM with IGROV1 ovarian; 37 µM in the test with MDA-N; greater than 100 µM in the test with CAKI-1 renal; 29.2 µM in the test with HCT-116 colon.

Turning to `CCOC(=O)c1ccc(N=C2SC(=S)N(c3ccc(F)cc3)C2=Nc2ccc(C(=O)OCC)cc2)cc1`, the TGI in the test with NCI-H226 lung was 43.1 µM; in the test on UACC-62 melanoma, 21.5 µM; in the test with SNB-19 CNS, greater than 100 µM; in the test with CCRF-CEM leukemia it was greater than 57.6 µM; with HOP-92 NSCLC, 26 µM; in the test with A549 NSCLC, greater than 84.9 µM. For the same compound, the TGI is 42.3 µM in the test with SK-MEL-28 melanoma; 51.6 µM with HT29 colon; 30.8 µM in the test on IGROV1 ovarian; 35.4 µM with MDA-N; 37.8 µM with CAKI-1 renal; 41.6 µM with HCT-116 colon.

Regarding `NC(=O)c1cnc2sc3ccccc3n2c1=O`, the TGI with NCI-H226 lung, in the test with UACC-62 melanoma, with SNB-19 CNS, in the test on CCRF-CEM leukemia, in the test on HOP-92 NSCLC and in the test with A549 NSCLC was greater than 100 µM throughout. Also, the TGI with SK-MEL-28 melanoma, with HT29 colon, in the test on IGROV1 ovarian, in the test on MDA-N, with CAKI-1 renal and in the test with HCT-116 colon was greater than 100 µM in each case.

In the case of `Cc1c2c(c(C)c3c[n+](C)ccc13)Oc1ccccc1O2`, the TGI in the test with NCI-H226 lung was greater than 43.8 µM; with UACC-62 melanoma, 27.4 µM; in the test on SNB-19 CNS it was 12.7 µM; in the test with CCRF-CEM leukemia, 37.6 µM; in the test on HOP-92 NSCLC, 99.8 µM; in the test with A549 NSCLC, greater than 100 µM. In addition, the TGI in the test on SK-MEL-28 melanoma is 28.6 µM; with HT29 colon, 68.2 µM; with IGROV1 ovarian, 50 µM; with MDA-N it was 53.5 µM; with CAKI-1 renal it was greater than 100 µM; in the test with HCT-116 colon, greater than 67.9 µM.

For `CC1=C(C)C(=O)OC(C(C)(O)C2(O)CCC3(O)C4CC(Cl)C5(O)C(O)C=CC(=O)C5(C)C4CCC32C)C1` (configuration not stated), the TGI with NCI-H226 lung was greater than 100 µM; in the test with UACC-62 melanoma, greater than 100 µM; in the test with SNB-19 CNS, greater than 100 µM; with CCRF-CEM leukemia it was 53.4 µM; in the test on HOP-92 NSCLC, greater than 100 µM; with A549 NSCLC it was greater than 100 µM. In addition, the TGI with SK-MEL-28 melanoma, with HT29 colon, in the test on IGROV1 ovarian, in the test on MDA-N, in the test on CAKI-1 renal and in the test with HCT-116 colon was greater than 100 µM throughout.

For `C1CNCCN2CCCNCCN(C1)CC2`, the TGI with NCI-H226 lung was greater than 100 µM; in the test with UACC-62 melanoma, greater than 100 µM; with SNB-19 CNS it was greater than 100 µM; in the test with CCRF-CEM leukemia, 37.9 µM; with HOP-92 NSCLC, greater than 100 µM; with A549 NSCLC it was greater than 100 µM. The TGI with SK-MEL-28 melanoma, in the test with HT29 colon, with IGROV1 ovarian, with MDA-N, in the test on CAKI-1 renal and in the test on HCT-116 colon was greater than 100 µM throughout.

In the case of `N#CC12COC3(CCCCC3C1(C#N)C#N)OC2=N` (configuration not stated), the TGI came out at 71.2 µM in the test on NCI-H226 lung; 33.9 µM with UACC-62 melanoma; 36 µM with SNB-19 CNS; 22.3 µM in the test on CCRF-CEM leukemia; 18.5 µM with HOP-92 NSCLC; 66.8 µM in the test on A549 NSCLC. Besides, the TGI amounted to 46.8 µM in the test with SK-MEL-28 melanoma; 26.1 µM with HT29 colon; 27.7 µM in the test on IGROV1 ovarian; 25.5 µM in the test on MDA-N; 14.2 µM in the test on CAKI-1 renal; 25.1 µM in the test on HCT-116 colon.

For `O=C(N/N=C(/COc1cccc(Cl)c1)N=Cc1ccncc1)c1ccncc1`, the TGI in the test with NCI-H226 lung, with UACC-62 melanoma, with SNB-19 CNS, with CCRF-CEM leukemia, in the test on HOP-92 NSCLC and in the test with A549 NSCLC was greater than 100 µM each time. The TGI with SK-MEL-28 melanoma, in the test with HT29 colon, in the test on IGROV1 ovarian, in the test on MDA-N, with CAKI-1 renal and in the test on HCT-116 colon was greater than 100 µM throughout.

With `COC(=O)C12CCC(C(=O)OC)(Cc3c(c4ccccc4n3S(=O)(=O)c3ccccc3)C1)C2=O` (configuration not stated), the TGI with NCI-H226 lung, in the test with UACC-62 melanoma, in the test on SNB-19 CNS, with CCRF-CEM leukemia, in the test with HOP-92 NSCLC and in the test with A549 NSCLC was greater than 100 µM throughout. The TGI in the test on SK-MEL-28 melanoma is greater than 100 µM; with HT29 colon, greater than 81 µM; in the test with IGROV1 ovarian, greater than 100 µM; with MDA-N, greater than 100 µM; in the test with CAKI-1 renal it was greater than 100 µM; with HCT-116 colon, greater than 26.5 µM.

Regarding `O=C1C(NS(=O)(=O)c2ccccc2)=C(n2cnc3ccccc32)C(=O)c2ccccc21`, the TGI in the test on NCI-H226 lung, in the test on UACC-62 melanoma, in the test on SNB-19 CNS, in the test on CCRF-CEM leukemia, in the test with HOP-92 NSCLC and in the test on A549 NSCLC was greater than 100 µM each time. Also, the TGI with SK-MEL-28 melanoma, with HT29 colon, with IGROV1 ovarian, in the test with MDA-N, in the test on CAKI-1 renal and in the test on HCT-116 colon was greater than 100 µM throughout.

Turning to `CCCCC1Cc2cc(O)ccc2-c2n1c1cc(O)ccc1[n+]2C` (configuration not stated) (tested in a mixture with another compound), the TGI in the test on NCI-H226 lung is greater than 100 µM; in the test with UACC-62 melanoma, greater than 81.5 µM; in the test with SNB-19 CNS, greater than 39.8 µM; in the test with CCRF-CEM leukemia, greater than 100 µM; with HOP-92 NSCLC, 73.8 µM; in the test on A549 NSCLC, greater than 100 µM. For the same compound, the TGI with SK-MEL-28 melanoma is 74.3 µM; with HT29 colon it was greater than 100 µM; in the test with IGROV1 ovarian, greater than 83.8 µM; in the test on MDA-N, greater than 100 µM; in the test with CAKI-1 renal, greater than 100 µM; with HCT-116 colon it was greater than 100 µM.

These data come from PubChem BioAssay (NCI).
